Peptide text beside a SMILES is read from it.
CCN(CC)CCN
logP: 0.21

O=C(c1ccccc1)c1ccncc1
logP: 1.98

Brc1ccc(Br)cc1
logP: 3.79

CC1=C(O)C(=O)c2ccccc2C1=O
logP: 1.2

O=C(O)c1ccccc1Br
logP: 2.2

CCCCCOC1OC(CO)C(O)C(O)C1O (centres undefined)
logP: -0.42

C[C@]12CCC(=O)C=C1CC[C@@H]1[C@@H]2[C@@H](O)C[C@@]2(C)[C@H]1CC[C@]2(O)C(=O)CO
logP: 1.61

N#CCC(=O)O
logP: -0.76

CSc1ccccc1N
logP: 1.2

CCCNC
logP: 0.84

CC(=O)N[C@@H](Cc1ccc(O)cc1)C(=O)N[C@@H](Cc1ccccc1)C(N)=O (Ac-Tyr-Phe-NH2)
logP: 0.54

COc1cccc(-c2cc3ccccn3c2)c1
logP: 4.14

O=[N+]([O-])c1ccc(OCC(O)CNCC(O)COc2ccccc2)cc1 (centres undefined)
logP: 2.62

CCCCn1nnc2ccccc21
logP: 2.57

CCCCNC(=O)NO
logP: 0.32

N#CCNc1ccccc1C(N)=O
logP: 0.5

CCCl
logP: 1.43

CC(=O)c1cccc(C#N)c1
logP: 1.16

CC[C@H](C)[C@H](NC(C)=O)C(=O)N[C@H](C(N)=O)C(C)C (Ac-Ile-Val-NH2)
logP: 0.16

COC(=O)c1cnc2ccccc2c1
logP: 2.25

c1cn(C23CC4CC(CC(C4)C2)C3)cn1
logP: 2.9

CCOC(=O)Nc1ccccc1
logP: 2.3

O=C(O)CCCc1c[nH]c2ccccc12
logP: 2.3

Cc1ccc(C)cc1
logP: 3.15

NC(=O)CCCCc1cccnc1
logP: 0.4

CC(C)(C)C(O)C(Oc1ccc(-c2ccccc2)cc1)n1cncn1 (centres undefined)
logP: 4.16

COc1cc(CC(C)N)c(OC)cc1C (centres undefined)
logP: 2.24

COCCN(CCOC)N=O
logP: -0.38

Nc1ccc(C(=O)O)cc1O
logP: 0.5

C=CNP(=O)(NC=C)NC(=O)c1cccc(OC)c1
logP: 0.86

COc1cccc2c1C(=O)c1c(O)c3c(c(O)c1C2=O)CC(O)(C(C)O)CC3OC1CC(N2CCOCC2)C(O)C(C)O1 (centres undefined)
logP: 2.03

O=C(O)c1ccc([N+](=O)[O-])cc1Cl
logP: 2.03

NS(=O)(=O)c1ccc(I)cc1
logP: 1.59

CC1(C)N=C(N)N=C(N)N1c1ccc(Br)cc1
logP: 1.09

Cc1ccc(Cc2c[nH]c(NCCSCc3ccc(CN(C)C)o3)nc2=O)cn1
logP: 2.06

Cn1c(=O)n(C)c2ccccc21
logP: 1.46

OCCN1CCN(CCC=C2c3ccccc3Sc3ccc(C(F)(F)F)cc32)CC1
logP: 4.51

CCOP(=S)(OCC)N1C(=O)c2ccccc2C1=O
logP: 3.48

CCCC(=O)CC(=O)CCC
logP: 2.23

CCC(Br)C(=O)O (centres undefined)
logP: 1.42

CC(C)COC(=O)c1cc(O)c(O)c(O)c1
logP: 2.46

CC1NC(=O)C(CC(=O)NC(Cc2c[nH]c3ccccc23)C(=O)NC(Cc2ccccc2)C(=O)N(C)Cc2ccccc2)NC1=O (centres undefined)
logP: 3.18

c1ccc2c(c1)ccc1ccccc12
logP: 4.46

CCc1ccc(S(I)=C(N(C)C)N(C)C)cc1 (centres undefined)
logP: 0.29

CC12CCC(=O)C=C1CCC1C3CCC(O)(C(=O)CO)C3(C)CC(O)C12F (centres undefined)
logP: 1.67

O=[N+]([O-])c1cccc(O)c1
logP: 2

CCOC(C)=O
logP: 0.73

Clc1nnnn1-c1ccccc1
logP: 1.48

Brc1ccc(-c2ccc(Br)cc2)cc1
logP: 5.72

CCCCN(CCCC)CC(O)c1ccccc1 (centres undefined)
logP: 3.16

Clc1ccc(Cl)cc1
logP: 3.44

Nc1ccc2nccnc2c1
logP: 0.9

CCCN(CCC)N=O
logP: 1.36

COP(=S)(OC)Oc1ccc([N+](=O)[O-])c(Cl)c1
logP: 3.45

CN(C)C(=S)NN
logP: -0.3

CCOc1cccnc1
logP: 1.44

ClCC#CCCl
logP: 2.01

COP(=S)(OC)Oc1nc(Cl)c(Cl)cc1Cl
logP: 4.31

C=CCOc1ccc(CC(=O)O)cc1Cl
logP: 2.48

N[C@@H](CS)C(=O)O
logP: -2.49

O=C(OCCc1ccccc1)c1ccccc1
logP: 4.01

NC(=O)COc1ccccc1
logP: 0.76

Cc1ccccc1C(=O)Nc1cccc(OC(C)C)c1
logP: 3.66

Fc1cccnc1
logP: 0.77

CCCCOCCO
logP: 0.83

CN(C)C(=O)c1ccccc1O
logP: 0.44

CCOc1cn[nH]c1
logP: 0.8

CC(=O)c1ccc(S(N)(=O)=O)cc1
logP: 0.2

Cn1ccnc1
logP: -0.06

CCN(CC)CCNC(=O)c1cc(S(=O)(=O)CC)c(N)cc1OC
logP: 1.7

CCc1ccccn1
logP: 1.69

CCCCCc1cn[nH]c1
logP: 2.96

OCc1cccnc1
logP: -0.02

CCC(=O)CC
logP: 0.99

O=S(=O)(Cc1ccccc1)c1ccccc1
logP: 2.05

Oc1ccc(Sc2ccc(O)cc2)cc1
logP: 3.34

Cc1cccc(C)c1NC(=O)C1CNCCN1 (centres undefined)
logP: 0.38

CCOC(=O)c1ccc(N)cc1
logP: 1.86

CC(C)Nc1nc(NC(C)(C)C)nc(SC(F)F)n1
logP: 4.7

Nc1nc(N)nc(N)n1
logP: -1.37

CNC(=O)Oc1ccccc1C
logP: 1.46

O=[N+]([O-])c1ccccn1
logP: 0.48

NS(=O)(=O)Cc1ccccc1
logP: 0.13

CCCCC1CC(C(=O)NC(C(C)Cl)C2OC(SC)C(O)C(O)C2O)N(CC)C1 (centres undefined)
logP: 3.21
